Measured values reported in patent publication US8569336B2, “Compounds for the treatment of inflammatory disorders” (priority 2008, dated 2013).
Read-outs that look alike come from different tables or passages of the source.

Assays:
[1] = molecular target: T1, purified catalytic domain of recombinant human TACE (rhTACEc) (Homo sapiens, UniProt P78536, N452Q/S266A); test: TACE kinetic assay: cleavage of internally quenched peptide substrate TNF-FRET 2 (Ki); assay type: biochemical; conditions: TNF-FRET 2 substrate
T1 construct: 6xHis (C); made in house; host or cells: baculovirus/Hi5 insect cells

[2] = Area under the curve determinations of plasma levels in rats (rrAUC), oral 10 mg/kg; assay type: in vivo; conditions: for AUC: rat, read-out: RR AUC (rapid rat AUC, rrAUC)
[3] = test system: TNF-α production from human whole blood; test: Inhibition of TNF-α production from human whole blood (hWBA), LPS stimulated, ELISA; assay type: cell-based; conditions: TNF-α by ELISA, read-out: hWBA (IC50)
[4] = Homo sapiens, 3.5 h, human whole blood diluted 1:1, LPS stimulated, 3.5 h
[5] = Homo sapiens, LPS-stimulated human whole blood
[6] = blood collected 0.5-6 h post-dosing
[7] = plasma, blood collected 0.5-6 h post-dosing
[8] = Homo sapiens, human whole blood diluted 1:1, LPS stimulated

T1 sequence (P78536 215-477 S266A/N452Q): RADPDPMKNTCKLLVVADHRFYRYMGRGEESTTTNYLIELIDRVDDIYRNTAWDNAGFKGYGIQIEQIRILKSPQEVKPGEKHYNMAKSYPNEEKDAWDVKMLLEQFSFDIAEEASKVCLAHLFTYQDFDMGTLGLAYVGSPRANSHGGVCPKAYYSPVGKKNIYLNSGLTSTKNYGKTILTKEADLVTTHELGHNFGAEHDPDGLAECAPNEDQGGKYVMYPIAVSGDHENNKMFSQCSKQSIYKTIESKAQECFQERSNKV

Ki ([1]; read-out: Ki) [nM] | AUC ([2]; plasma 0.5-6 h post-dosing) [µM·h] | IC50 [3, 4] [nM] | AUC ([2]; plasma 0.5-6 h) [µM·h] | IC50 [3, 5] [nM] | SMILES | also measured
0.599 | 2.71 | 381 | – | – | COc1ccc2c(c1)C(=O)N(C[C@@]1(c3cc4nc(NC5CCN(C)CC5)ccc4o3)NC(=O)NC1=O)C2 [Compound 2141] | –
0.4 | – | – | 0.011 | 309 | CCNC(=O)N1CCc2oc([C@]3(CN4Cc5ccc(OC)cc5C4=O)NC(=O)NC3=O)cc2C1 [Compound 320] | –
0.576 | 4.83 | 920 | – | – | COc1ccc2c(c1)C(=O)N(C[C@@]1(c3cc4nc(Nc5ncccn5)ccc4o3)NC(=O)NC1=O)C2 [Compound 2169] | –
7.71 | 0.24 | ≥ 1000 | – | – | COc1ccc2c(c1)C(=O)N(C[C@@]1(c3cc4c(o3)CCN(C)C4)NC(=O)NC1=O)C2 [Compound 2263] | –
0.645 | 0.393 | 125 | – | – | COc1ccc2c(c1)C(=O)N(C[C@@]1(c3cc4nc(N5C[C@@H](O)CC5=O)ccc4o3)NC(=O)NC1=O)C2 [Compound 2154] | –
0.77 | – | – | 1.87 | 239 | CCC1(c2cc(F)c3oc([C@]4(CN5Cc6ccc(OC)c(F)c6C5=O)NC(=O)NC4=O)cc3c2)NC(=O)NC1=O (stereo partly drawn) [Compound 1305] | –
0.7 | – | – | 0.145 | 245 | COc1ccc2c(c1)C(=O)N(C[C@@]1(c3cc4nc(N5CCCC(C(N)=O)C5)ccc4o3)NC(=O)NC1=O)C2 (stereo partly drawn) [Compound 1515] | –
0.8 | – | – | – | – | COc1ccc2c(c1)C(=O)N(C[C@@]1(c3cc4cnc(-c5cccc(C#N)c5)cc4o3)NC(=O)NC1=O)C2 [Compound 2431] | RR AUC (rapid rat AUC, rrAUC) [2, 6]: 10.648 µM·h; IC50 ([3]; human whole blood diluted 1:1, LPS stimulated): 8420 nM
0.557 | 0.534 | 168 | – | – | COc1ccc2c(c1)C(=O)N(C[C@@]1(c3cc4nc(-n5ccnc5)ccc4o3)NC(=O)NC1=O)C2 [Compound 2164] | –
0.197 | 0.104 | 99.4 | – | – | COc1ccc2c(c1)C(=O)N(C[C@@]1(c3cc4nc(-c5cn[nH]c5)ccc4o3)NC(=O)NC1=O)C2 [Compound 2100] | –
0.4 | – | – | 5.19 | 263 | COc1ccc2c(c1F)C(=O)N(C[C@@]1(c3cc4nc(N5C(=O)CCC5C)ccc4o3)NC(=O)NC1=O)C2 (stereo partly drawn) [Compound 1510] | –
0.974 | 0.522 | 507 | – | – | COc1ccc2c(c1F)C(=O)N(C[C@@]1(c3cc4nc(N5CCCNC5=O)ccc4o3)NC(=O)NC1=O)C2 [Compound 2146] | –
0.935 | 0.527 | 331 | – | – | COc1ccc2c(c1)C(=O)N(C[C@@]1(c3cc4nc(N5CC[C@H](O)C5=O)ccc4o3)NC(=O)NC1=O)C2 [Compound 2159] | –
0.69 | – | – | – | – | COc1ccc2c(c1F)C(=O)N(C[C@@]1(c3cc4cc5c(c(F)c4o3)C(=O)N(C)C5)NC(=O)NC1=O)C2 [Compound 2502] | AUC [2, 7]: 3.12 µM·h; IC50 [3, 8]: 381 nM
0.594 | – | – | – | – | COc1ccc2c(c1)C(=O)N(C[C@@]1(c3cc4cnc(C)nc4o3)NC(=O)NC1=O)C2 [Compound 2309] | AUC [2, 7]: 18 µM·h; IC50 [3, 8]: 624 nM
0.36 | 10.6 | 218 | – | – | COc1ccc2c(c1F)C(=O)N(C[C@@]1(c3cc4cccnc4o3)NC(=O)NC1=O)C2 [Compound 2271] | –
0.515 | 0.414 | 958 | – | – | COc1ccc2c(c1)C(=O)N(C[C@@]1(c3cc4ccc(-c5nnc(C)o5)cc4o3)NC(=O)NC1=O)C2 [Compound 2190] | –
0.5 | 1.52 | 144 | – | – | COc1ccc2c(c1F)C(=O)N(C[C@@]1(c3cc4nc(N5CCN(C)CC5)ccc4o3)NC(=O)NC1=O)C2 [Compound 2125] | –
0.52 | – | – | – | – | COC(=O)Nc1ccc2oc([C@]3(CN4Cc5ccc(OC)cc5C4=O)NC(=O)NC3=O)cc2n1 [Compound 2474] | AUC [2, 7]: 15.5 µM·h; IC50 [3, 8]: 549 nM
0.82 | – | – | 1.2 | 137 | CCN1CCN(c2ccc3oc([C@]4(CN5Cc6ccc(OC)c(F)c6C5=O)NC(=O)NC4=O)cc3n2)CC1 [Compound 1705] | –

Ki ([1]; read-out: Ki) [nM] | AUC ([2]; plasma 0.5-6 h post-dosing) [µM·h] | IC50 [3, 4] [nM] | AUC ([2]; plasma 0.5-6 h) [µM·h] | IC50 [3, 5] [nM] | SMILES | also measured
0.23 | 1.07 | 286 | – | – | COc1ccc2c(c1F)C(=O)N(C[C@@]1(c3cc4cc(-c5cn[nH]c5)c(F)cc4o3)NC(=O)NC1=O)C2 [Compound 1187] | –
0.745 | – | – | – | – | COc1ccc2c(c1)C(=O)N(C[C@@]1(c3cc4nc(-c5ccc(C#N)nc5)ccc4o3)NC(=O)NC1=O)C2 [Compound 2472] | AUC [2, 7]: 0.536 µM·h; IC50 [3, 8]: 1610 nM
0.711 | 0.069 | 278 | – | – | COc1ccc2c(c1)C(=O)N(C[C@@]1(c3cc4cc(CNCCN(C)C)ccc4o3)NC(=O)NC1=O)C2 [Compound 2177] | –
0.579 | – | – | – | – | COc1ccc2c(c1)C(=O)N(C[C@@]1(c3cc4nc(NS(=O)(=O)C5CC5)ccc4o3)NC(=O)NC1=O)C2 [Compound 2318] | RR AUC (rapid rat AUC, rrAUC) [2, 6]: 0.015 µM·h; IC50 [3, 8]: 518 nM
0.813 | 0.063 | 310 | – | – | COc1ccc2c(c1)C(=O)N(C[C@@]1(c3cc4cc(C5(C)NC(=O)NC5=O)c(C)cc4o3)NC(=O)NC1=O)C2 (stereo partly drawn) [Compound 2207] | –
0.6 | – | – | 4.29 | 289 | COc1ccc2c(c1F)C(=O)N(C[C@@]1(c3cc4nc(-n5ccnc5)ccc4o3)NC(=O)NC1=O)C2 [Compound 1523] | –
1.3 | – | – | 0.303 | 1550 | COc1ccc2c(c1)C(=O)N(C[C@@]1(c3cc4nc(N5CCCCC5=O)ccc4o3)NC(=O)NC1=O)C2 [Compound 1512] | –
0.64 | – | – | 19.1 | 241 | COc1ccc2c(c1F)C(=O)N(C[C@@]1(c3cc4cc(C)ncc4o3)NC(=O)NC1=O)C2 [Compound 305] | –
0.48 | – | – | 0.393 | 132 | COc1ccc2c(c1F)C(=O)N(C[C@@]1(c3cc4nc(-c5ccc(N)nc5)ccc4o3)NC(=O)NC1=O)C2 [Compound 1716] | –
0.195 | – | – | – | – | COc1ccc2c(c1F)C(=O)N(C[C@@]1(c3cc4cc5c(cc4o3)C(=O)NCC5)NC(=O)NC1=O)C2 [Compound 2491] | AUC [2, 7]: 0.972 µM·h; IC50 [3, 8]: 109 nM
0.5 | – | – | 0.65 | 235 | CCN1CCN(c2ccc3oc([C@]4(CN5Cc6ccc(OC)c(F)c6C5=O)NC(=O)NC4=O)cc3n2)CC1=O [Compound 1707] | –
0.25 | – | – | – | – | CCc1nccc2oc([C@]3(CN4Cc5ccc(OC)cc5C4=O)NC(=O)NC3=O)cc12 [Compound 2289] | AUC [2, 7]: 3.56 µM·h; IC50 [3, 8]: 358 nM
0.86 | – | – | – | 280 | CNC(=O)c1ccc2oc([C@]3(CN4Cc5ccc(OC)cc5C4=O)NC(=O)NC3=O)cc2n1 [Compound 1925] | RR AUC (rapid rat AUC, rrAUC) ([2]; plasma 0.5-6 h): 1.07 µM·h
0.193 | 0.349 | 968 | – | – | COc1ccc2c(c1)C(=O)N(C[C@@]1(c3cc4nc(-c5cnn(CC(C)C)c5)ccc4o3)NC(=O)NC1=O)C2 [Compound 2115] | –
0.5 | – | – | 0.041 | 1740 | CCOC(=O)C1CCCN(c2ccc3oc([C@]4(CN5Cc6ccc(OC)cc6C5=O)NC(=O)NC4=O)cc3n2)C1 (stereo partly drawn) [Compound 1516] | –
0.458 | – | – | – | – | COc1ccc2c(c1)C(=O)N(C[C@@]1(c3cc4c(N5CCOCC5)nccc4o3)NC(=O)NC1=O)C2 [Compound 2281] | AUC [2, 7]: 0.749 µM·h; IC50 [3, 8]: 510 nM
0.682 | 1.02 | 1390 | – | – | COc1ccc2c(c1)C(=O)N(C[C@@]1(c3cc4cc(-c5cc[nH]n5)ccc4o3)NC(=O)NC1=O)C2 [Compound 2219] | –
0.34 | 3.53 | 885 | – | – | COc1ccc2c(c1)C(=O)N(C[C@@]1(c3cc4nc(N5CCCCC5)ccc4o3)NC(=O)NC1=O)C2 [Compound 2168] | –
1.02 | – | – | 45.7 | 104 | COc1ccc2c(c1F)C(=O)N(C[C@@]1(c3cc4cc(C5(C)NC(=O)NC5=O)c(F)cc4o3)NC(=O)NC1=O)C2 (stereo partly drawn) [Compound 1316] | –

SMILES | Ki ([1]; read-out: Ki) [nM] | AUC ([2]; plasma 0.5-6 h post-dosing) [µM·h] | IC50 [3, 4] [nM] | AUC ([2]; plasma 0.5-6 h) [µM·h] | IC50 [3, 5] [nM] | also measured
COc1ccc2c(c1)C(=O)N(C[C@@]1(c3cn4cccnc4n3)NC(=O)NC1=O)C2 [Compound 750] | – | – | – | 0.32 | 705 | Ki ([1]; Ki): 1.91 nM
COc1ccc2c(c1)C(=O)N(C[C@@]1(c3cc4nc(-c5ccc(N)nc5)ccc4o3)NC(=O)NC1=O)C2 [Compound 2102] | – | 0.092 | 164 | – | – | Ki ([1]; Ki): 0.328 nM
COc1ccc2c(c1F)C(=O)N(C[C@@]1(c3cc4cnc(C)cc4o3)NC(=O)NC1=O)C2 [Compound 30] | 0.38 | 26.3 | 205 | – | – | –
COc1ccc2c(c1)C(=O)N(C[C@@]1(c3cc4cc(-c5cccnc5)ccc4o3)NC(=O)NC1=O)C2 [Compound 2195] | – | 1.16 | 2120 | – | – | Ki ([1]; Ki): 0.966 nM
COc1ccc2c(c1)C(=O)N(C[C@@]1(c3cc4cnc(C)cc4o3)NC(=O)NC1=O)C2 [Compound 2258] | 0.366 | 19.1 | 345 | – | – | –
COc1ccc2c(c1)C(=O)N(C[C@@]1(c3cn4ccsc4n3)NC(=O)NC1=O)C2 [Compound 502C] | – | – | – | 2.22 | 538 | Ki ([1]; Ki): 1.26 nM
COc1ccc2c(c1)C(=O)N(C[C@@]1(c3cc4cnc(N5CCNC5=O)cc4o3)NC(=O)NC1=O)C2 [Compound 2252] | – | 1.18 | 206 | – | – | Ki ([1]; Ki): 1.79 nM
COc1ccc2c(c1F)C(=O)N(C[C@@]1(c3cc4nc(C5=CCNCC5)c(F)cc4o3)NC(=O)NC1=O)C2 [Compound 1320] | – | – | – | 0.101 | 55 | Ki ([1]; Ki): 0.37 nM
